Test results published in patent publication US12071488B2, “Method of sensitizing cancer cells to anti-cancer treatment” (TWO TO BIOTECH LTD., priority 2017, dated 2024).

Assays:
[1] = test system: human TNBC tumors (MDA-MB-231); test: Relative tumor volume in nude mice inoculated with TNBC cells; assay type: in vivo; conditions: MDA-MB-231 tumors; APC1 15 mg/kg, doxorubicin 3 mg/kg once a week; 5 weeks; control increased linearly
From the text: To this end, mice were inoculated with TNBC cells as detailed above, briefly 32 nude mice were inoculated subcutaneously with TNBC cells (MDA-MB-231, 8×10^6 cells per mouse).

[2] = test system: human ovarian cancer cells (OV90); test: Relative tumor volume in nude mice inoculated with human ovarian cancer cells; assay type: in vivo; conditions: OV90 tumors; APC1 15 mg/kg, doxorubicin 3 mg/kg once a week; 5 weeks; control increased linearly
Experimental: During the treatment period, each mouse was weighted, and the tumor size was measured by Digital caliper.
When the tumors exceeded a volume of 40 mm^3 or 50 mm^3 (for OV90 and Panc1, respectively), the mice were randomly divided into four groups of 8 mice each, as follows. A control group was treated with saline only, the APC1-treated group was treated three times a week with doses of APC1 at 15 mg/kg each, the doxorubicin and APC treated group was treated twice a week with doses of APC1 (at 15 mg/kg each) and once a week with doxorubicin (at 3 mg/kg) and the doxorubicin-treated group was treated with doxorubicin only, once a week at a dose of 3 mg/kg. These dosing protocols were repeated throughout the experiment, namely for 5 weeks.

[3] = test system: leukemia and prostate cancer cells; conditions: WO 2009/083968; cited from earlier work
[4] = test system: tumor; conditions: WO 2009/083968; cited from earlier work

Row | Molecule | relative tumor volume [1] | relative tumor volume [2] | viability of leukemia and prostate cancer cells [3] | tumor growth in mice [4]
1 | COc1cccc2c1C(=O)c1c(O)c3c(c(O)c1C2=O)C[C@@](O)(C(=O)CO)C[C@@H]3O[C@H]1C[C@H](N)[C@H](O)[C@H](C)O1 [doxorubicin, (7S,9S)-7-[(2R,4S,5S,6S)-4-amino-5-hydroxy-6-methyloxan-2-yl]oxy-6,9,11-trihydroxy-9-(2-hydroxyacetyl)-4-methoxy-8,10-dihydro-7H-tetracene-5,12-dione, reference compound] | moderate increase | modest increases | – | –
2 | MPGHSRLLSILVSGLCVVGSSIGVLRRREQAERGSRRCAIAGEERAMLSPSPLPE TPFSPEKGAAFSPIYPRRK (protein, listed as Homo sapiens, full length polypeptide of 74 amino acid residues described in WO 2009/083968) MPGHSRLLSILVSGLCVVGSSIGVLRRREQAERGSRRCAIAGEERAMLSPSPLPETPFSPEKGAAFSPIYPRRK | – | – | decrease in the viability | prevention of tumor growth
